Measured values reported in publication PMC8784640, “New insights into the molecular mechanisms of glutaminase C inhibitors in cancer cells using serial room temperature crystallography” (The Journal of Biological Chemistry, 2021).
Substitutions are numbered along the chain they refer to. “And” between values parts separate entries of the source, which are not always exact repeats. Identical values can stand only once.

What was measured:
recombinant GAC = test system: recombinant GAC; set-up: method as in PMID 26988803; settings: cited from earlier work; for IC50: recombinant GAC (50 nM), total glutamine hydrolysis
GAC (F322W) = biological target: T1, GAC (F322W) (Mus musculus, UniProt D3Z7P3, F327W); test: Tryptophan fluorescence quenching binding assay, GAC (F322W)
T1 sequence (D3Z7P3 72-603 isoform D3Z7P3-2 F327W limits assumed): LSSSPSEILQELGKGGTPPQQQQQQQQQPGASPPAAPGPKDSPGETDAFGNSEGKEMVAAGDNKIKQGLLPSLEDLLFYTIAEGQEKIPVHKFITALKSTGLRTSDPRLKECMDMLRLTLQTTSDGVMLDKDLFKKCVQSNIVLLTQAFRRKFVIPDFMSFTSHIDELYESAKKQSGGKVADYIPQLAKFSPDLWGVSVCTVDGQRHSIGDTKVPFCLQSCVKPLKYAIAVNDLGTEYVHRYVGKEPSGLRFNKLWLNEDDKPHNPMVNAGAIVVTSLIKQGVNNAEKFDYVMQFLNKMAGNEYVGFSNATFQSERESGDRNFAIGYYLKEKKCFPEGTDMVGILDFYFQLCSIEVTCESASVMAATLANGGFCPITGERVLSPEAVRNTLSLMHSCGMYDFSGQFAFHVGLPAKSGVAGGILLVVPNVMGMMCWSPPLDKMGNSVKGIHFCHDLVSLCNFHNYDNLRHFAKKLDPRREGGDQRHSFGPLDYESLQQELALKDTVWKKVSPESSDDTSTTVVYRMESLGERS
Description: (§1) We first examined their ability to alter the conformation of the activation loop, that is, the site where the compounds bind to GAC ([15], [28]). […] We then treated the GAC (Y466W) mutant with each molecule to monitor conformational changes within the substrate-binding site ([15], [28]).
(§2) Mouse GAC (F327W) and GAC (Y471W), which correspond to human GAC (F322W) and GAC (Y466W), were prepared as previously described ([14], [28]), except that the protein was eluted in a higher salt buffer during FPLC purification (500 mM NaCl, 20 mM Tris–HCl, pH 8.5) to enhance protein stability. Assays were then conducted as previously described ([14], [28]). Briefly, 100 nM GAC (F327W) or GAC (Y471W) was solvated in 1 ml of 50 mM Tris-acetate, pH 8.5, with 0.1 mM EDTA and the indicated amount of inhibitor.

GAC (Y466W) = biological target: T2, GAC (Y466W) (Mus musculus, UniProt D3Z7P3, Y471W); test: Tryptophan fluorescence quenching binding assay, GAC (Y466W); settings: for Kd: Kd (apparent), Trp 466 fluorescence quenching
T2 sequence (D3Z7P3 72-603 isoform D3Z7P3-2 Y471W limits assumed): T1 sequence (D3Z7P3 72-603 isoform D3Z7P3-2 F327W limits assumed) with W256F, Y400W
Description: as §1, §2

GAC (F318A and Y466W) = biological target: T3, GAC (F318A and Y466W) (Mus musculus, UniProt D3Z7P3, F323A/Y471W); test: Tryptophan fluorescence quenching binding assay, GAC (F318A and Y466W); settings: GAC mutant F318A, Trp 466 fluorescence, read-out: Kd (apparent)
T3 sequence (D3Z7P3 128-555 F323A/Y471W): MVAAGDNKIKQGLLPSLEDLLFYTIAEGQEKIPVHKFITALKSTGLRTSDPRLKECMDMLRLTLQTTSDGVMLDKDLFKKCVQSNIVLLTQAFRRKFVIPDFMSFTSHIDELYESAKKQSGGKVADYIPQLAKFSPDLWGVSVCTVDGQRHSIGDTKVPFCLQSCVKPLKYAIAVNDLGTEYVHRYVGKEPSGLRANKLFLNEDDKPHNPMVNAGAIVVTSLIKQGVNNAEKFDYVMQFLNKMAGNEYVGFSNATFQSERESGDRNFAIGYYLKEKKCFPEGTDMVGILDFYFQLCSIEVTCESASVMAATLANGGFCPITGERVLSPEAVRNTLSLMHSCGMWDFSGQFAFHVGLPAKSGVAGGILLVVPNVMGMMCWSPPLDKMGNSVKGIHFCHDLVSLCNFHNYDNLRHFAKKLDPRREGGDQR

GAC (K320A and Y466W) = biological target: T4, GAC (K320A and Y466W) (Mus musculus, UniProt D3Z7P3, K325A/Y471W); test: Tryptophan fluorescence quenching binding assay, GAC (K320A and Y466W); settings: GAC mutant K320A, Trp 466 fluorescence, read-out: Kd (apparent)
T4 construct: made in house
T4 sequence (D3Z7P3 72-603 isoform D3Z7P3-2 K325A/Y471W): T1 sequence (D3Z7P3 72-603 isoform D3Z7P3-2 F327W limits assumed) with K254A, W256F, Y400W

GAC (R317A and Y466W) = biological target: T5, GAC (R317A and Y466W) (Mus musculus, UniProt D3Z7P3, R322A/Y471W); test: Tryptophan fluorescence quenching binding assay, GAC (R317A and Y466W); settings: GAC mutant R317A, Trp 466 fluorescence, read-out: Kd (apparent)
T5 sequence (D3Z7P3 128-555 R322A/Y471W): T3 sequence (D3Z7P3 128-555 F323A/Y471W) with R195A, A196F

mouse GAC (K325A) = test system: mouse GAC (K325A); set-up: method as in PMID 23935106; settings: concentrations as high as 10 μM; equivalent to human GAC (K320A); cited from earlier work
[1] = set-up: method as in PMID 26988803; settings: compared with BPTES; cited from earlier work

Kd (GAC (F322W)) [nM]	quenching of Trp 322 fluorescence (in words) (GAC (F322W); GAC (F322W))	Kd (GAC (Y466W); 100 nM GAC (Y466W))	SMILES	IC50 (recombinant GAC) [nM]	quenching of Trp 466 fluorescence / binding (in words) (GAC (Y466W); GAC (Y466W))	other results
			O=C(Cc1ccccc1)Nc1ccc(OC2CCN(c3ccc(NC(=O)Cc4ccccc4)nn3)CC2)nn1 [UPGL00045]	98		
			CC(=O)Nc1nnc(OC2CCN(c3nnc(NC(C)=O)s3)CC2)s1 [UPGL00020]	1050	significantly reduced binding	
54.5	quenching of Trp 322 fluorescence	28.7 nM and 29 nM	O=C(Cc1ccccc1)Nc1nnc(OC2CCN(c3nnc(NC(=O)Cc4ccccc4)s3)CC2)s1 [UPGL00019]	30	effective at causing a quenching of Trp 466 fluorescence	Kd (GAC (F318A and Y466W)): 54 nM; Kd (GAC (K320A and Y466W)): > 1000 nM; Kd (GAC (R317A and Y466W)): 31 nM
		76 nM	O=C(Cc1ccccc1)Nc1nnc(NC2CCN(c3nnc(NC(=O)Cc4ccccc4)s3)CC2)s1 [UPGL00004]	29		Kd (GAC (F318A and Y466W)): 24 nM; Kd (GAC (K320A and Y466W)): > 1000 nM; Kd (GAC (R317A and Y466W)): 38 nM
34.4	quenching of Trp 322 fluorescence	27.2 nM	Nc1nnc(N2CCC(Oc3nnc(NC(=O)Cc4ccccc4)s3)CC2)s1 [UPGL00031]	203	effective at causing a quenching of Trp 466 fluorescence	
			O=C(Cc1ccccc1)Nc1nnc(CCSCCc2nnc(NC(=O)Cc3ccccc3)s2)s1 [BPTES, bis-2-(5-phenylacetamido-1,3,4-thiadiazol-2-yl)ethyl sulfide, reference compound]			inhibition of mouse GAC (K325A) (mouse GAC (K325A)): resistant to inhibition
			O=C(Cc1ccccc1)Nc1nnc(O[C@H]2CCN(c3nnc(NC(=O)Cc4ccccc4)s3)C2)s1 [UPGL00015]	40		
			O=C(Cc1cccc(OC(F)(F)F)c1)Nc1ccc(CCCCc2nnc(NC(=O)Cc3ccccn3)s2)nn1 [CB-839, reference compound]			calculated logP relative to BPTES [1]: higher calculated logP

SMILES	Kd (GAC (F322W)) [nM]	quenching of Trp 322 fluorescence (in words) (GAC (F322W); GAC (F322W))	Kd (GAC (Y466W); 100 nM GAC (Y466W))	IC50 (recombinant GAC) [nM]	quenching of Trp 466 fluorescence / binding (in words) (GAC (Y466W); GAC (Y466W))	other results
Nc1nnc(OC2CCN(c3nnc(N)s3)CC2)s1 [UPGL00018]	> 1000	largely ineffective at micromolar concentrations	> 1000 nM	> 10000	markedly less effective	inhibition (recombinant GAC; at 10 μM, catalytic data of this paper come from ref 20): ~20%; lowest concentration with statistically significant quenching (GAC (F322W); GAC (F322W)): 240 nM; competition with UPGL00019 for GAC binding (GAC (Y466W); 100 nM GAC (Y466W), 1 μM UPGL00018 and 1 μM UPGL00019, simultaneous or sequential): unable to compete away UPGL00019; lowest concentration with statistically significant effect on tryptophan fluorescence (GAC (Y466W); GAC (Y466W), highest tested concentration, effect minimal): 980 nM
